Measurements from patent publication US20180135134A1, “TARGETED SELECTION OF PATIENTS FOR TREATMENT WITH CORTISTATIN DERIVATIVES” (President and Fellows of Harvard College, priority 2015, published 2018).

Tests used:
[1] = system: K562; experiment: Cellular proliferation assay (CellTiter-Glo); details: Homo sapiens
Method: (§1) All suspension cells were plated (96-well) in triplicate at 5,000-30,000 cells per well for testing (n=3). Viable cell number was estimated after 3, 7 and 10 days by counting viable cells from one vehicle well, generating a cell dilution series, transferring 20 ml per well in duplicate to a 384-well plate, and performing a linear regression to CellTiter-Glo (Promega) response (SPECTRAmax M3, Molecular Devices). Cells from all wells were also fourfold diluted in media and transferred in duplicate for CellTiter-Glo measurement. On days 3 and 7, an equal volume for all wells was split-back with fresh media and compound, such that the resulting cell density for the vehicle well matched the initial seeding density. For days 7 and 10, estimated cell number represents the split-adjusted theoretical cell number. […] For growth assays with inhibitors, n=3 for each concentration with two independent experiments.

[2] = system: SK-N-MC; experiment: Soft agar growth assay (Alamar Blue); details: Neuroblastoma, EWS-FLI1, 100 nM cortistatin A
Method: (§2) For the 62 cell lines 96 well suspension cell culture plates were prepared. 100 μL of the soft agar bottom layer (0.6% final concentration in complete medium) was poured and left to solidify. 50 μL of the soft agar top layer (0.4% final concentration) containing the corresponding cells and cell number were then added on top, solidified and incubated at 37° C., 10% CO2. After the soft agar had solidified, the test items were added at indicated final concentrations into the inner wells of the plate. Subsequently, the assay was incubated in cell culture incubators for 8 to 14 days. Finally, the assay was developed using Alamar Blue and upon 1-5 h of incubation at 37° C. fluorescence intensity was determined (excitation: 560 nm; emission: 590 nm). As low control, cells were treated with 1E-05M Staurosporine (6fold values). As high control, cells were treated with 0.1% DMSO (solvent control, 6 fold values).
(§3) Raw data were converted into percent soft agar growth relative to high controls (solvent 0.1% DMSO) and low controls (1E-05M Staurosporine), which were set to 100% and 0%, respectively.

[3] = system: HCC827; experiment: Soft agar growth assay (Alamar Blue); details: Non small cell lung carcinoma, EGFR mutation, 100 nM cortistatin A
Method: as §2, §3

[4] = system: UKE-1; experiment: Synergy assay with ruxolitinib (Chou-Talalay), UKE-1; type: cell-based, human; details: combination of cortistatin A with JAK1/2 inhibitor ruxolitinib, FIG. 5
Method: SET-2 and UKE-1 cells were co-treated with constant ratios of ruxolitinib to CA, 1 to 1 or 10 to 1, in a 96-well growth assay format with a range of 2-fold dose dilutions of compounds. SET-2 and UKE-1 cells were also treated with ruxolitinib alone or CA alone in a 2-fold dilution series. The Chou-Talalay combination index values at 50% growth inhibition (Fa=0.5) were determined using CalcuSyn software (see Chou, T. C. Cancer Res. 2010 Jan. 15; 70(2):440-6) (FIG. 5).

[5] = target: T1, CDK8/Cyclin C (Homo sapiens, UniProt P49336); experiment: In vitro radiometric protein kinase assay (PanQinase); type: biochemical; details: FIG. 8
T1 construct: purchased ProQinase GmbH
Excerpt: A radiometric protein kinase assay was used (PanQinase activity assay; performed by ProQinase GmbH) as described (Hutterer, C. et al. Antimicrob. Agents Chemother. 59, 2062-2071 (2015)).

[6] = system: MEG-01; experiment: Cellular proliferation assay (CellTiter-Glo); details: Homo sapiens
Method: as §1

[7] = system: TF-1; experiment: Cellular proliferation assay (CellTiter-Glo); details: Homo sapiens
Method: All suspension cells were plated (96-well) in triplicate at 5,000-30,000 cells per well for testing (n=3). Viable cell number was estimated after 3, 7 and 10 days by counting viable cells from one vehicle well, generating a cell dilution series, transferring 20 ml per well in duplicate to a 384-well plate, and performing a linear regression to CellTiter-Glo (Promega) response (SPECTRAmax M3, Molecular Devices). Cells from all wells were also fourfold diluted in media and transferred in duplicate for CellTiter-Glo measurement. On days 3 and 7, an equal volume for all wells was split-back with fresh media and compound, such that the resulting cell density for the vehicle well matched the initial seeding density. For days 7 and 10, estimated cell number represents the split-adjusted theoretical cell number. HCT116 were plated (96-well) in triplicate at 250 cells per well. Cells were incubated in the presence of vehicle, 1 μM paclitaxel, or compound. On day 7, CellTiter-Blue (Promega) response was measured and values were normalized to vehicle (100% growth) and paclitaxel (0% growth). For growth assays with inhibitors, n=3 for each concentration with two independent experiments.

[8] = system: CMK-86; experiment: Cellular proliferation assay (CellTiter-Glo); details: Homo sapiens
Method: as §1

[9] = target: CDK19 W105M (Homo sapiens, UniProt Q9BWU1, W105M); details: expression of CDK19 W105M; FIG. 9
Method: 5′-Flag-tagged CDK8 and CDK19 were cloned from pBabe.puro.CDK8.flag (Addgene 19758) and F-CDK8L (Addgene 24762) into pLVX-EF1alpha-IRES-mCherry and pLVX-EF1alpha-IRES-ZsGreen (Clontech) and transformed into E. coli (One Shot Stbl3, Invitrogen). Point mutations were introduced by whole-plasmid PCR (QuikChange II XL Site-Directed Mutagenesis Kit, Agilent). pLVX lentiviral vectors were co-transfected with psPASx and pMD2.G (Addgene) in 293T cells. After 48 h, viral supernatants were collected and passed through a 0.45 m filter (Millipore). For transductions, 24-well plates were coated with 500 μl of 20 μg ml RetroNectin (Clontech) at 4° C. overnight, blocked with 2% BSA for 30 min, washed with PBS, and 300-500 μl of viral supernatant was added. The plates were centrifuged (2,000 g, 1.5 h) and then set in an incubator. After 2 h, viral supernatant was removed and 500 μl per well of 200,000 cells per ml was added. After 1-3 days, the cells were expanded and isolated by FACS.

[10] = system: T47D; experiment: Soft agar growth assay (Alamar Blue); details: Breast cancer, ER-alpha positive, 100 nM cortistatin A
Method: as §2, §3

[11] = system: Kasumi-1; experiment: Cellular proliferation assay (CellTiter-Glo); details: Homo sapiens
Method: as §1

[12] = system: RUNX1 target gene signatures; experiment: Gene expression and gene set enrichment analysis (GSEA) in SET-2 cells; type: cell-based, human; details: 4 h 25 nM CA
Method: Leukemia cells were plated (12-well) in triplicate at 500,000-800,000 cells per ml and incubated in the presence of vehicle (0.1% DMSO) or CA (25 nM 3 h for K562, MOLM-14 and MV4;11; 10 nM 24 h for MOLM-14; 25 nM 4 h for SET-2, n=3 for each cell line). Cells were then washed twice with cold PBS, and snap frozen. RNA was isolated (RNeasy Plus Microkit, Qiagen or TRIzol, Life Technologies), processed, and, for K562, MOLM-14 and MV4;11, hybridized to the Human U133 Plus 2.0 microarray (Affymetrix). Microarrays were processed with Bioconductor packages affyQCReport for quality control and affy for background correction, summarization, and normalization using rma. […] SET-2 and HCT 116 gene expression was measured by RNA-seq. […] Reads were aligned in two passes, first with rnaStar (v.2.3.0e) then with BWA (v.0.7.5a) for remaining unmapped reads, both using default parameters. Mapped reads were merged and counted using HTSeq (v.0.5.3p3) with -s yes -m intersection-strict. […] Samples were run in a single lane on an Illumina HiSEQ 2000 sequencer with a single read flow cell using 1×50-bp reads and a 6-cycle index read. Reads were mapped to the hgl9 reference genome using Tophat2 v.2.0.6 with custom settings including the setting of—library-type fr—firstrand to appropriately account for the stranded nature of the protocol. […]

[13] = system: A498; experiment: Soft agar growth assay (Alamar Blue); details: clear cell renal cell carcinoma, Loss of function VHL mutation (VHL negative), 100 nM cortistatin A
Method: as §2, §3

[14] = system: HL-60; experiment: Cellular proliferation assay (CellTiter-Glo); details: Homo sapiens
Method: as §1

[15] = system: ARH-77; experiment: Cellular proliferation assay (CellTiter-Glo); details: Homo sapiens
Method: as §1

[16] = system: SET-2 cells; experiment: SET-2 differentiation assay (CD41/CD61 flow cytometry); details: 50 nM cortistatin A, 3 days; FIG. 3
Method: Cell pellets were collected at 4° C., washed three times with cold PBS, and stained with anti-CD61-PE (ab91128) or anti-CD41-PerCP (ab134373) and analyzed by flow cytometry.

[17] = system: megakaryocytic cell lines; experiment: Cellular proliferation assay, megakaryocytic cell lines; details: Homo sapiens
Method: as §1

[18] = system: SK-ES-1; experiment: Soft agar growth assay (Alamar Blue); details: EWS-FLI1, 100 nM cortistatin A
Method: as §2, §3

Sequence of CDK19 W105M (Q9BWU1 whole entry W105M): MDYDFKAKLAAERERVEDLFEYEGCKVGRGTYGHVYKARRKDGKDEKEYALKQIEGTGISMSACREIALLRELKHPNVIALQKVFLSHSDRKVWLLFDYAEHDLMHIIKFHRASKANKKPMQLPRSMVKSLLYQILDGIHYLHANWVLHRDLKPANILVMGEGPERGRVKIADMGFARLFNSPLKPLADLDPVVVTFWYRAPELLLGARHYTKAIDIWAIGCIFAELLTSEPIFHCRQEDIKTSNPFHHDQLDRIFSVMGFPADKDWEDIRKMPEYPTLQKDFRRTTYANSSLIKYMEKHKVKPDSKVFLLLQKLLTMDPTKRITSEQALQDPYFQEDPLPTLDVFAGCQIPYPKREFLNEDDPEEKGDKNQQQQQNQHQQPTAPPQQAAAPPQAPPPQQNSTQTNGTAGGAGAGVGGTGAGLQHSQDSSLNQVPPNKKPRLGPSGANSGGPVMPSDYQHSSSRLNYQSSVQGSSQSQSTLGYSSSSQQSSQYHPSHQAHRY
Sequence of CDK19 W105M (P24863 whole entry partner): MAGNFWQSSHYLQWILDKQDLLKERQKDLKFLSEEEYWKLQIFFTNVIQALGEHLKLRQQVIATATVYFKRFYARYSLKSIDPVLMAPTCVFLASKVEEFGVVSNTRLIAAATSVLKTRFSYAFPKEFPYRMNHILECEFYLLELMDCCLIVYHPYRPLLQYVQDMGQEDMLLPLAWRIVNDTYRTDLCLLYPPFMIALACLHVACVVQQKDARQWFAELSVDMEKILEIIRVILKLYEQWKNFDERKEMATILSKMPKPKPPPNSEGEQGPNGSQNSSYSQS
T1 sequence (P49336 whole entry): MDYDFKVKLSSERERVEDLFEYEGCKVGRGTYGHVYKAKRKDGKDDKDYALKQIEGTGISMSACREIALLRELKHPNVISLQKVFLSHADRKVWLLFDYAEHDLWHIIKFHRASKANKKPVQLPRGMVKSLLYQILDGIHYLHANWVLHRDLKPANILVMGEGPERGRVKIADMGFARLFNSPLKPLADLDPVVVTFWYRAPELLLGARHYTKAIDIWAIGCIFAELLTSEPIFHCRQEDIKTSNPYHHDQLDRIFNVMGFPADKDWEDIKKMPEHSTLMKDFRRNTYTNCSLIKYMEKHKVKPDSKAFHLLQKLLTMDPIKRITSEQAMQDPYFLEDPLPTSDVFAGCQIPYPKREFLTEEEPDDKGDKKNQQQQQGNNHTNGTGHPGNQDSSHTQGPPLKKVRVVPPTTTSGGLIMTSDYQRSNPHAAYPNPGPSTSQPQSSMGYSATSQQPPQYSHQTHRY
T1 sequence (P24863 whole entry partner): as the sequence (P24863 whole entry partner) above

## CN(C)[C@H]1C[C@@]23CC[C@@]4(O2)C(=CC[C@]2(C)[C@@H](c5ccc6ccncc6c5)CC[C@H]24)C=C3[C@@H](O)[C@@H]1O [Cortistatin A, cortistatin A]
[1]; K562
  GI50: > 1000 nM
[1]; K562, 240 h
  GI50: > 1000 nM
[2]
  % growth rel. to vehicle: 45%
[3]
  % growth rel. to vehicle: 23%
[4]
  combination index (synergy) for inhibition of proliferation: synergizes
[5]
  inhibition of CDK8/Cyclin C kinase activity: potently inhibits CDK8/Cyclin C
[6]; MEG-01
  GI50: 9 nM
[6]; MEG-01, 240 h
  GI50: 9 nM
[7]
  GI50: 350 nM
[8]; CMK-86
  GI50: 8 nM
[8]; CMK-86, 240 h
  GI50: 8 nM
[9]
  growth of MOLM-14 cells expressing drug resistant allele: able to proliferate in the presence of cortistatin A
[10]
  % growth rel. to vehicle: 48%
[11]
  GI50: 95 nM
[12]; signature: GATA1/GATA2/RunX1/FLI1/SCL Binding Sites in Mks
  NES: 2.03
[12]; signature: GATA1/SCL Binding Sites in Mks
  NES: 2.27
[13]
  % growth rel. to vehicle: 51%
[14]
  GI50: 7 nM
[15]
  GI50: 16 nM
[16]
  differentiation of SET-2 cells (percent of cells with megakaryocytic markers CD41 and CD61): induces differentiation of SET-2 cells
[17]
  GI50: < 10 nM
[18]
  % growth rel. to vehicle: 36%
